In the experiment the target is BRD4 (BDI_K57-E168) (Homo sapiens, UniProt O60885). The experiment can be described thus: TR-FRET bromodomain binding assay, BRD4 BDI.

Structures are written as SMILES.

The results in this text go back to US20210047304A1, “Bromodomain Inhibitors” (AbbVie Inc., priority 2016, published 2021).

Take `CC(=O)N[C@H]1C[C@H](Oc2cc(=O)n(C)cc2-c2cc(C(C)(C)O)ccc2Oc2c(C)cc(F)cc2C)C1` [Example 100, N-[trans-3-({5-[2-(4-fluoro-2,6-dimethylphenoxy)-5-(2-hydroxypropan-2-yl)phenyl]-1-methyl-2-oxo-1,2-dihydropyridin-4-yl}oxy)cyclobutyl]acetamide]: the Ki stood at 719 nM. With `Cc1cc(F)cc(C)c1Oc1ccc(C(C)(C)O)cc1-c1cn(C)c(=O)cc1O[C@H]1CC[C@H](N(C)C(=O)C(C)(C)C)CC1` [Example 59, N-[trans-4-({5-[2-(4-fluoro-2,6-dimethylphenoxy)-5-(2-hydroxypropan-2-yl)phenyl]-1-methyl-2-oxo-1,2-dihydropyridin-4-yl}oxy)cyclohexyl]-N,2,2-trimethylpropanamide] the figure was 6550 nM. In the case of `Cc1cc(F)cc(C)c1Oc1ccc(C(C)(C)O)cc1-c1cn(C)c(=O)cc1O[C@H]1CC[C@H](NC(=O)C2(C#N)CC2)CC1` [Example 85, 1-cyano-N-[trans-4-({5-[2-(4-fluoro-2,6-dimethylphenoxy)-5-(2-hydroxypropan-2-yl)phenyl]-1-methyl-2-oxo-1,2-dihydropyridin-4-yl}oxy)cyclohexyl]cyclopropane-1-carboxamide] it was 2270 nM; in that of `Cc1cc(F)cc(C)c1Oc1ccc(C(C)(C)O)cc1-c1cn(C)c(=O)cc1O[C@H]1CC[C@H](C(C)(C)O)CC1` [Example 67, 5-[2-(4-fluoro-2,6-dimethylphenoxy)-5-(2-hydroxypropan-2-yl)phenyl]-4-{[trans-4-(2-hydroxypropan-2-yl)cyclohexyl]oxy}-1-methylpyridin-2(1H)-one], 2830 nM; in that of `Cc1cc(F)cc(C)c1Oc1ccc(C(C)(C)O)cc1-c1cn(C)c(=O)cc1O[C@H]1CC[C@H](NC(=O)C(C)(C)C)CC1` [Example 57, N-[trans-4-({5-[2-(4-fluoro-2,6-dimethylphenoxy)-5-(2-hydroxypropan-2-yl)phenyl]-1-methyl-2-oxo-1,2-dihydropyridin-4-yl}oxy)cyclohexyl]-2,2-dimethylpropanamide], 1660 nM. In the case of `Cc1cc(F)cc(C)c1Oc1ccc(C(C)(C)O)cc1-c1cn(C)c(=O)cc1O[C@H]1CC[C@H](N2CCCCCC2=O)CC1` [Example 37, 1-[trans-4-({5-[2-(4-fluoro-2,6-dimethylphenoxy)-5-(2-hydroxypropan-2-yl)phenyl]-1-methyl-2-oxo-1,2-dihydropyridin-4-yl}oxy)cyclohexyl]azepan-2-one] it was 2510 nM. In turn, `Cc1cc(F)cc(C)c1Oc1ccc(C(C)(C)O)cc1-c1cn(C)c(=O)cc1O[C@H]1CC[C@H](N2CCCN(C)C2=O)CC1` [Example 41, 1-[trans-4-({5-[2-(4-fluoro-2,6-dimethylphenoxy)-5-(2-hydroxypropan-2-yl)phenyl]-1-methyl-2-oxo-1,2-dihydropyridin-4-yl}oxy)cyclohexyl]-3-methyltetrahydropyrimidin-2(1H)-one] came in with an inhibitory constant (Ki) of 2480 nM.

`CC(=O)NN[C@H]1CC[C@H](Oc2cc(=O)n(C)cc2-c2cc(C(C)(C)O)ccc2Oc2c(C)cc(F)cc2C)CC1` [Example 105, N′-[trans-4-({5-[2-(4-fluoro-2,6-dimethylphenoxy)-5-(2-hydroxypropan-2-yl)phenyl]-1-methyl-2-oxo-1,2-dihydropyridin-4-yl}oxy)cyclohexyl]acetohydrazide]: the affinity corresponds to a Ki of 2160 nM. The molecule `Cc1cc(F)cc(C)c1Oc1ccc(C(C)(C)O)cc1-c1cn(C)c(=O)cc1O[C@H]1CC[C@H](N2C(=O)N(C)C3(CC3)C2=O)CC1` [Example 145, 6-[trans-4-({5-[2-(4-fluoro-2,6-dimethylphenoxy)-5-(2-hydroxypropan-2-yl)phenyl]-1-methyl-2-oxo-1,2-dihydropyridin-4-yl}oxy)cyclohexyl]-4-methyl-4,6-diazaspiro[2.4]heptane-5,7-dione] registered an inhibition constant (Ki) greater than 13000 nM. For `CC(=O)N(CCO)[C@H]1CC[C@H](Oc2cc(=O)n(C)cc2-c2cc(C(C)(C)O)ccc2Oc2c(C)cc(F)cc2C)CC1` [Example 54, N-[trans-4-({5-[2-(4-fluoro-2,6-dimethylphenoxy)-5-(2-hydroxypropan-2-yl)phenyl]-1-methyl-2-oxo-1,2-dihydropyridin-4-yl}oxy)cyclohexyl]-N-(2-hydroxyethyl)acetamide], the affinity, expressed as Ki, was 2260 nM. With `Cc1cc(F)cc(C)c1Oc1ccc(C(C)(C)O)cc1-c1cn(C)c(=O)cc1O[C@H]1CC[C@H](N(C)C(=O)C2(C)CC2)CC1` [Example 58, N-[trans-4-({5-[2-(4-fluoro-2,6-dimethylphenoxy)-5-(2-hydroxypropan-2-yl)phenyl]-1-methyl-2-oxo-1,2-dihydropyridin-4-yl}oxy)cyclohexyl]-N,1-dimethylcyclopropane-1-carboxamide] the figure was 783 nM; with `Cc1cc(F)cc(C)c1Oc1ccc(C(C)(C)O)cc1-c1cn(C)c(=O)cc1O[C@H]1CC[C@H](n2cnccc2=O)CC1` [Example 144, 3-[trans-4-({5-[2-(4-fluoro-2,6-dimethylphenoxy)-5-(2-hydroxypropan-2-yl)phenyl]-1-methyl-2-oxo-1,2-dihydropyridin-4-yl}oxy)cyclohexyl]pyrimidin-4(3H)-one], greater than 13000 nM; with `C=CC(=O)N[C@H]1CC[C@H](Oc2cc(=O)n(C)cc2-c2cc(C(C)(C)O)ccc2Oc2c(C)cc(F)cc2C)CC1` [Example 28, N-[trans-4-({5-[2-(4-fluoro-2,6-dimethylphenoxy)-5-(2-hydroxypropan-2-yl)phenyl]-1-methyl-2-oxo-1,2-dihydropyridin-4-yl}oxy)cyclohexyl]prop-2-enamide], 1520 nM. With `Cc1cc(F)cc(C)c1Oc1ccc(C(C)(C)O)cc1-c1cn(C)c(=O)cc1O[C@H]1CC[C@H](N2C(=O)[C@@H]3CCCN3C2=O)CC1` [Example 91, (7aS)-2-[trans-4-({5-[2-(4-fluoro-2,6-dimethylphenoxy)-5-(2-hydroxypropan-2-yl)phenyl]-1-methyl-2-oxo-1,2-dihydropyridin-4-yl}oxy)cyclohexyl]tetrahydro-1H-pyrrolo[1,2-c]imidazole-1,3(2H)-dione] the figure was 5860 nM; with `CCOC(=O)CN(C(=O)C1(C)CC1)[C@H]1CC[C@H](Oc2cc(=O)n(C)cc2-c2cc(C(C)(C)O)ccc2Oc2c(C)cc(F)cc2C)CC1` [Example 66, ethyl N-[trans-4-({5-[2-(4-fluoro-2,6-dimethylphenoxy)-5-(2-hydroxypropan-2-yl)phenyl]-1-methyl-2-oxo-1,2-dihydropyridin-4-yl}oxy)cyclohexyl]-N-(1-methylcyclopropane-1-carbonyl)glycinate], 1320 nM; with `Cc1cc(F)cc(C)c1Oc1ccc(C(C)(C)O)cc1-c1cn(C)c(=O)cc1O[C@H]1CC[C@H](NC(=O)C2(C(N)=O)CC2)CC1` [Example 111, N-[trans-4-({5-[2-(4-fluoro-2,6-dimethylphenoxy)-5-(2-hydroxypropan-2-yl)phenyl]-1-methyl-2-oxo-1,2-dihydropyridin-4-yl}oxy)cyclohexyl]cyclopropane-1,1-dicarboxamide], 1190 nM. In the case of `Cc1cccc(C)c1Oc1ccc(C(C)(C)O)cc1-c1cn(C)c(=O)cc1NC1CCN(S(C)(=O)=O)C1` (centres unmarked) [Example 12, 5-[2-(2,6-dimethylphenoxy)-5-(2-hydroxypropan-2-yl)phenyl]-4-{[1-(methanesulfonyl)pyrrolidin-3-yl]amino}-1-methylpyridin-2(1H)-one] it was 553 nM. `CCc1c(-c2cc(C(C)(C)O)ccc2Oc2c(C)cc(F)cc2C)c(O[C@H]2CC[C@H](N3CCCC3=O)CC2)cc(=O)n1C` [Example 33, 6-ethyl-5-[2-(4-fluoro-2,6-dimethylphenoxy)-5-(2-hydroxypropan-2-yl)phenyl]-1-methyl-4-{[trans-4-(2-oxopyrrolidin-1-yl)cyclohexyl]oxy}pyridin-2(1H)-one] gave a Ki greater than 13000 nM. In the case of `Cc1cc(F)cc(C)c1Oc1ccc(C(C)(C)O)cc1-c1cn(C)c(=O)cc1O[C@H]1CC[C@H](NC(=O)C2(C#N)CCC2)CC1` [Example 88, 1-cyano-N-[trans-4-({5-[2-(4-fluoro-2,6-dimethylphenoxy)-5-(2-hydroxypropan-2-yl)phenyl]-1-methyl-2-oxo-1,2-dihydropyridin-4-yl}oxy)cyclohexyl]cyclobutane-1-carboxamide] it was 3980 nM; in that of `Cc1cccc(C)c1Oc1ccc(CN(C)C(N)=O)cc1-c1cn(C)c(=O)cc1O[C@H]1CC[C@H](NC(=O)C2(C)CC2)CC1` [Example 115, N-[trans-4-({5-[5-{[carbamoyl(methyl)amino]methyl}-2-(2,6-dimethylphenoxy)phenyl]-1-methyl-2-oxo-1,2-dihydropyridin-4-yl}oxy)cyclohexyl]-1-methylcyclopropane-1-carboxamide], 2920 nM; in that of `CNC(=O)N(C)Cc1ccc(Oc2c(C)cccc2C)c(-c2cn(C)c(=O)cc2O[C@H]2CC[C@H](NC(=O)C3(C)CC3)CC2)c1` [Example 113, N-[trans-4-({5-[2-(2,6-dimethylphenoxy)-5-{[methyl(methylcarbamoyl)amino]methyl}phenyl]-1-methyl-2-oxo-1,2-dihydropyridin-4-yl}oxy)cyclohexyl]-1-methylcyclopropane-1-carboxamide], 6060 nM. In the case of `Cc1cc(F)cc(C)c1Oc1ccc(C(C)(C)O)cc1-c1cn(C)c(=O)cc1O[C@H]1CC[C@H](NC(=O)N2CCOCC2)CC1` [Example 122, N-[trans-4-({5-[2-(4-fluoro-2,6-dimethylphenoxy)-5-(2-hydroxypropan-2-yl)phenyl]-1-methyl-2-oxo-1,2-dihydropyridin-4-yl}oxy)cyclohexyl]morpholine-4-carboxamide] it was 3670 nM. With `Cc1cc(F)cc(C)c1Oc1ccc(C(C)(C)O)cc1-c1cn(C)c(=O)cc1O[C@H]1CC[C@H](N2C(=O)O[C@@H](C)C2=O)CC1` [Example 92, (5S)-3-[trans-4-({5-[2-(4-fluoro-2,6-dimethylphenoxy)-5-(2-hydroxypropan-2-yl)phenyl]-1-methyl-2-oxo-1,2-dihydropyridin-4-yl}oxy)cyclohexyl]-5-methyl-1,3-oxazolidine-2,4-dione] the figure was greater than 13000 nM.
